Consider 1 compound from patent publication US20240374609A1, “NITROSAMINE IMPURITY, VARENICLINE PHARMACEUTICAL COMPOSITION CAPABLE OF REDUCING GENERATION OF NITROSAMINE IMPURITIES AND PREPARATION AND USE THEREOF” (VIWIT PHARMACEUTICALCO., LTD., priority 2021, published 2024).

The series in a line: Stability of solutions (control solution and sample solution at room temperature). In kind it is physicochemical. As to the method: Control stock solution: 7.5 mg of the nitrosamine compound P08 (purity≥98%) was weighed into a 100 ml volumetric flask, dissolved and diluted with acetonitrile to volume (volumetric solution 1A). 1.0 mL of the volumetric solution 1A was added into a 100 ml volumetric flask, and diluted with acetonitrile to volume (volumetric solution 1B). 1.0 mL of the volumetric solution 1B was added into a 20 ml volumetric flask, and diluted with acetonitrile to volume to obtain the control stock solution.
Control solution: 1.0 mL of the control stock solution was added into a 10 ml volumetric flask, and diluted with acetonitrile to volume to obtain the control solution.
Sample solution: 10 varenicline tartrate tablets were placed in a 10 ml volumetric flask, added with 3 mL of purified water and 3 mL of acetonitrile, sonicated for 30s, then diluted with acetonitrile to volume and mixed evenly.
The control solution and the sample solution were placed at room temperature, then injected for analysis at intervals of 0, 2, 4, 6, 8, 10, 12 hours, and the peak area ratio of each time point to the zero point (i.e., peak area change rate) was calculated.

Take `O=NN1CC2CC(C1)c1cc3nccnc3cc12` [P08]: the “peak area change rate within 12 hours” value was < 12% (control solution (acetonitrile)) and < 3.5% (sample solution (tablets in water/acetonitrile)).
